The record followed here is US20070202047A1, “Polyamine-substituted ligands for use as contrast agents” (priority 2006, published 2007).

For data set [1], the system named is subcutaneous MH3924A tumor. Briefly: MRI of ACI rats bearing a subcutaneous MH3924A tumor. It counts as in vivo, rat. The conditions noted are these: 1 h post Gd, 0.1 mmol/kg i.v., 2.35 T. The method, then:
Animal models. For in vivo tumor studies 2×10^6 MH3924A tumor cells were injected subcutaneously into the right thigh of male ACI rats (Charles River, Sulzfeld, Germany) weighing 220 to 260 g. All animal experiments were performed in compliance with the German Animal Protection Laws (Permission 35-9185.81/G-7-03, Reg.-Praesidium, Karlsruhe, Germany).
MRI. At 25 days after inoculation, when tumors had reached a diameter of ca. 10-15 mm, the MR imaging experiments were initiated. ACI rats were anesthetized by intravenous injection of ketamin (Ketanest®, 0.1 mg/g body wt.; Parke-Davis, Berlin, Germany). Then a dose of 0.1 mmol/kg Magnevist® or Gadovist® (Schering, Berlin, Germany) or one of the synthesized agents Gd-3.1., Gd-5.1. or Gd-6.1. was injected intravenously into a lateral tail vein. For one experiment a higher dose (0.36 mmol/kg) of Magnevist® was used. Individual rats were examined by MRI at 1 h and 24 h post Gd, in the case of Magnevist® also at ca. 15 min post Gd. Proton imaging studies were performed at 2.35 T (100.3 MHz) with a Biospec 24/40 instrument (Bruker BioSpin MRI, Ettlingen, Germany). […] Two transaxial multislice imaging protocols were applied with a field of view of 70×70 mm, 128 time-domain data points, 96 phase-encoding steps, and 16 slices of 2 mm thickness. A multi-spin-echo sequence was used for proton-density and T2-weighted images (repetition time TR=2 s, 12 echoes with echo times TE of 8, 16, 24, . . . 96 ms, number of averages=1), and a spoiled gradient-echo sequence was used for T1-weighted imaging (TR=212 ms, TE=5 ms, flip angle=60°, number of averages=3). The data were Fourier transformed to give a 128×128 image matrix with 0.55 mm pixel resolution. Analogous T1-weighted images with coronal slices were acquired with a field of view of 80×80 mm and 3-mm slice thickness.
Imaging viewing, ROI analysis and export of TIFF files was performed with the freeware MRIcro from Chris Rorden (http://people.cas.sc.edu/rorden/mricro.html).

The test system of data set [2] is B16, MH3924A, Hela, MCF-7, A498 and mouse fibroblasts (3T3 NIH). Description: Intracellular uptake, cell panel of FIG. 7A (ICP-MS). The format is cell-based. The conditions noted are these: 1-h incubation, 10-100 μM, samples of 3×10^6 cells (FIG. 7A). The procedure: (§1) Cell Uptake Studies. A493 (human kidney), B16 melanoma cells (mouse), HeLa (human cervix), MCF-7 (human breats), MH3924A (Morris hepatoma) cells (rat) and 3T3 NIH (mouse fibroblasts) were obtained from the DKFZ tumor cell collection. 3×10^6 cells of each cell type were grown for 24 hours in culture flasks. Afterwards they were incubated for 1 hour in 10 mL culture media containing 0, 10, 50 and 100 μM of Gd-2.2. Gd-3.2 or Gd-4.2. Afterwards the medium was removed, the cells were trypsinated, washed twice, resuspended in culture medium and counted. The gadolinium uptake was determined in triplicate. […] cells were incubated with 0, 1, 2.5, 5 and 10 μM of the Gd-1.2. and Gd-5.2. for 24 h.
(§2) ICP-MS: Equal cell counts were taken and digested with HNO3 under microwave heating (Mars5, CEM). The samples were diluted with water containing Rh-103 as an internal standard. Gd-157 measurements were performed with a high resolution ICP-mass spectrometer (ELEMENT 2, Finnigan MAT). The gadolinium concentrations were determined from standard curves created prior to sample analyses.

Data set [3] in a line: Biodistribution in BALB/c nu/nu mice carrying B16 melanoma. It counts as in vivo, mouse. The conditions noted are these: 1 h post i.v. injection, perfused organs, B16 melanoma-bearing mice. The method, then: Animal model. For in vivo tumor studies 3×10^6 B16 tumor cells were injected subcutaneously into the right thigh of male BALB/c nu/nu mice (Charles River, Sulzfeld, Germany) weighing 18 to 21 g. All animal experiments were performed in compliance with the German Animal Protection Laws (Permission 35-9185.81/G-7-03, Reg.-Praesidium, Karlsruhe, Germany).
Biodistribution data. At 10 days after tumor inoculation, when tumors had reached a diameter of ca. 7-8 mm, the biodistribution experiments were initiated. Each animal (18-21 g) was given an intravenous tail-vein injection of 975 μmol/kg Gadovist® (Schering, Berlin, Germany) or 1 μmol/kg of Gd-2.2. 1 h post-injection (p.i.), the animals were weighed, sacrificed by cervical dislocation, perfused and dissected. Organs or tissues were blotted dry and weighed. Samples containing the tumor or organs were digested with concentrated HNO3 (Superselect; Merck, Darmstadt, Germany) and H2O2 under microwave heating with a Mars 5 apparatus (CEM GmbH, Kamp-Lintfort, Germany). To each sample 100 μL of an aqueous solution of rhodium chloride (1 μg/mL) were added so that Rh-103 could be used as an internal quantification standard. […] The gadolinium concentrations were determined using standard curves created prior to tissue analyses. The results are expressed as nmol Gd/g tissue scaled on the dose of 100 μmol of the corresponding Gd complex.

The subject of data set [4] is MH3924A Morris hepatoma cells. Description: Intracellular uptake of gadolinium complexes (ICP-MS). The format is cell-based, rat. The conditions noted are these: MH3924A. The method, then: (§3) Cell culture. B16 melanoma cells (mouse) and MH3924A Morris hepatoma cells (rat) were obtained from the German Cancer Research Center (DKFZ) tumor bank and grown at 37° C. as stock cultures in RPMI 1640 supplemented with 10% fetal calf serum and 1% glutamine as standard medium under a 5% CO2 atmosphere (all components: Pan Biotech GmbH, Aidenbach, Germany). For contrast agent uptake studies 10^6 cells were inoculated into 25 cm^2 culture flasks (BD Biosciences, Bedford, USA) and grown for 24 h in 10 mL of the standard culture medium. Cells were then incubated for an additional 24 h (1 h for temperature dependence studies) with fresh medium containing 0, 1, 2.5, 5 or 10 μM of the selected gadolinium complex (three replicate flasks for each incubation). Afterwards the medium was removed, cells were trypsinated, washed twice, resuspended in culture medium and counted (typical yields: 3.5-6 million cells). For comparison 2.5×10^5 human melanocytes (Promo Cell, Heidelberg, Germany) were incubated for 24 h with melanocyte growth medium (Promo Cell, Heidelberg, Germany) containing 0, 1, 2.5, 5 or 10 μM of the selected gadolinium complex (two replicate flasks for each incubation). The work up procedure was as described above typically yielding 2.5×10^5 cells. Cultured human hepatocytes (Cytonet GmbH, Weinheim, Germany) embedded in a collagen matrix in a 12 well microtiter plate, with 6×10^5 viable cells per well were incubated for 24 h in hepatocyte growth medium (Cytonet GmbH, Weinheim, Germany) containing the same concentration series of selected gadolinium complexes. Afterwards the medium was removed, cells were separated using collagenase (Roche Diagnostics, Mannheim, Germany). After digestion the cells were washed twice with PBS, resuspended in culture medium and counted (typical yields: 6×10^5 cells per tube). The intracellular gadolinium content was determined by ICP-MS as described below.
(§4) ICP-MS. Samples containing the above mentioned number of harvested cells were digested with 50% concentrated HNO3 (Superselect; Merck, Darmstadt, Germany) under microwave heating with a Mars 5 apparatus (CEM GmbH, Kamp-Lintfort, Germany). To each sample 100 μL of an aqueous solution of rhodium chloride (1 μg/mL) were added so that Rh-103 could be used as an internal quantification standard. Gd-160 measurements were performed with the ICP-MS instrument mentioned above. The gadolinium concentrations were determined using standard curves created prior to cell analyses. For each uptake incubation condition triplicate cell samples were analyzed, and Gd content for each sample was recorded as the mean of two MS determinations.
(§5) Intracellular Uptake of Gadolinium Complexes. B16 melanoma and MH3924A hepatoma cells as well as human melanocytes and hepatocytes were incubated for 24 h in the presence of the gadolinium complexes shown in FIG. 1, using concentrations in the range of 1-10 μM. Incubations with the unsubstituted [Gd(DTPA)(H2O)]^2−complex (Magnevist®) served as controls. Following cell harvest and hydrolysis, inductively coupled plasma mass spectrometry (ICP-MS) with direct detection of gadolinium was used to quantitate complex uptake (triplicate cultures for each incubation).
as §1, with “h. […]” for “h.”

Data set [5] deals with MCF-7 (human breast cancer). The data set is described as above. To be noted: MCF-7, 1 h incubation, 100 μM. It counts as cell-based. The procedure:
as §1, §2

The test system of data set [6] is A498 (human kidney carcinoma). Described as above. The format is cell-based. The conditions noted are these: A498, 1 h incubation, 100 μM. The procedure:
as §1, §2

In data set [7] the test system is HeLa (human cervix carcinoma cells). The data set is described as above. It counts as cell-based. To be noted: 1 h incubation, 100 μM. The method, then: as §1, §2
A short description of a further data set: Complex stability. The conditions noted are these: method of Sherry et al. It counts as physicochemical. The method, then:
Complex stability. The stability constants were determined using a method of Sherry et al. (39).

Another data set concerns B16 melanoma cells. Briefly: Intracellular uptake of gadolinium complexes (ICP-MS). It counts as cell-based, mouse. To be noted: B16 melanoma cells, 1 h incubation, 100 μM. The method, then:
as §3, §4, §5
as §1, with “h. […]” for “h.”

A further data set addresses T1, human serum albumin (Homo sapiens, UniProt P02768).
T1 construct: purchased Behring, Bern, Switzerland
Briefly: Serum albumin binding (ultrafiltration, ICP-MS). It counts as in vitro ADME. To be noted: 20 μM complex, 40 g/L HSA, 37° C., ultrafiltrate. The procedure: Serum albumin binding. Solutions containing 20 μM Gd-3.1., Gd-5.1. or Gd-6.1. and 40 g/L human serum albumin (Behring, Bern, Switzerland) were incubated at 37° C. for 30 or 90 min. The solutions were subjected to ultrafiltration (filter cutoff 20 kD; Sartorius, Göttingen, Germany), and the amount of unbound complex was determined in the ultrafiltrate with ICP-MS (n=2).
HSA Binding: 20 μM solutions of the complexes were incubated at 37° C. for 30 and 90 minutes in a solution of 40 g HSA/L (Behring, Bern; Switzerland). The amount of unbound complex was determined in ultrafiltrates with ICP-MS.

T1 sequence (P02768 25-609): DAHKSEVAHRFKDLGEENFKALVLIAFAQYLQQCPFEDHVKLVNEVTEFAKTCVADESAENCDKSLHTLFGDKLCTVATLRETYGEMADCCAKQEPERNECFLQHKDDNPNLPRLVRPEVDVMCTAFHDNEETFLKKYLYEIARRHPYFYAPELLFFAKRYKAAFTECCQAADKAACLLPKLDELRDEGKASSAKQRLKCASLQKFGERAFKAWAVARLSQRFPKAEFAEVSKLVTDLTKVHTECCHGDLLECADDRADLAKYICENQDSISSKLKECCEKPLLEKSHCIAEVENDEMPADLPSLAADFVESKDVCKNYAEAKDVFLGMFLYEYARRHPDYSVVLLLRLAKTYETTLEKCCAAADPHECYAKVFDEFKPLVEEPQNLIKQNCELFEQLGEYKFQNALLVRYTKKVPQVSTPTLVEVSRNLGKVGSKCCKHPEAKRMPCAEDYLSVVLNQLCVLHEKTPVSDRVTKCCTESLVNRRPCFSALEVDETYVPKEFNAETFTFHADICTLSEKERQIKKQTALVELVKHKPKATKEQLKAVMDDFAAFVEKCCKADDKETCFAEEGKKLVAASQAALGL

Consider `O=C([O-])CN1CCN(CC(=O)[O-])CCN([C@H](CO)[C@H](O)CO)CCN(CC(=O)[O-])CC1.[Gd+3]` (racemic) [Gadovist, gadobutrol, reference compound], for which the “contrast ratio tumor vs. muscle tissue, T1 weighting” value in [1] is on record as not above 1.06. Further, in data set [2], the “intracellular uptake (below ICP-MS detection limit)” value is less than 0.01 fmol/cell.
With `NCCN(CCN)C(=O)CN1CCN(CC(=O)[O-])CCN(CC(=O)[O-])CCN(CC(=O)[O-])CC1.[Gd+3]` [Gd-2.2], the “preferential tissue binding (biodistribution)” value in data set [3] is “binds preferentially to kidneys and skin tissue, but shows high tumor uptake as well”. The “intracellular gadolinium content after 1 h incubation plus additional 24 h in complex-free medium” value in data set [4] is “the same as for the 1 h incubation”. Also, the “intracellular uptake of gadolinium complex” value in data set [4] (1 h incubation with 100 μM complex) came to 0.222 fmol/cell; in [5], 0.0086 fmol/cell; in data set [6], 0.023 fmol/cell; in [7], 0.0078 fmol/cell; with B16 melanoma cells, 0.057 fmol/cell. For the same molecule, the complex stability constant entry in the data set “Complex stability” is on record as “about 3.45×10^21”. The “complex found to be free (unbound)” value at human serum albumin stood at 92±5%.
